Reference: ChEMBL document CHEMBL1201862, “PubChem BioAssay data set” (2004)
Calls of active or inactive are those of the source.

Assays:
Large T antigen = Large T antigen (Simian virus 40, UniProt P03070); assay type: functional, Betapolyomavirus macacae;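 note: Confirmatory-stage PubChem screen for compounds that inhibit SV40 T antigen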
Estrogen receptor [1] = target: T1, Estrogen receptor (Homo sapiens, UniProt P03372); assay: potentiators of ERα–SRC-1 coactivator binding, dose response, biochemical, TR-FRET, ERα LBD (AID 737)
T1 sequence (P03372 whole entry): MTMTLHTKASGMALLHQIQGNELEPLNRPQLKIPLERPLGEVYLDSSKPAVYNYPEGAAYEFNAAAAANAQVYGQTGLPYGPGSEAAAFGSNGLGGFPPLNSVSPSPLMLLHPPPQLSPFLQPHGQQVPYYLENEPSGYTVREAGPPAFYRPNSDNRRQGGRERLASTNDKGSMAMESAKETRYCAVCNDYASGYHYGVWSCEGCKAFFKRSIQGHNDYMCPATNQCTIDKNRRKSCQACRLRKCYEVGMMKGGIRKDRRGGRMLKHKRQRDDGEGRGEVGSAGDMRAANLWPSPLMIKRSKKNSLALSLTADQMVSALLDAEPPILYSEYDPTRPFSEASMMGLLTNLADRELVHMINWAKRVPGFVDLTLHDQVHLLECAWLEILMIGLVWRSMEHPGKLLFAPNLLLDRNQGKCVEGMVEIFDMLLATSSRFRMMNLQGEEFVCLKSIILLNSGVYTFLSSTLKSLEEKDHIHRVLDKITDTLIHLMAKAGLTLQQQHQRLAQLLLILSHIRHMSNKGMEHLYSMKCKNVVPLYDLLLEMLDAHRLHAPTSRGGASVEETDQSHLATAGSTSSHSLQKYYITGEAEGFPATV

[2] = target: Mothers against decapentaplegic homolog 3 (Homo sapiens, UniProt P84022); assay: SMAD3 transcription factor inhibitors, dose response (AID 715); assay type: functional
Estrogen receptor [3] = target: T1, Estrogen receptor
[4] = target: Protein-tyrosine kinase 2-beta (Homo sapiens, UniProt Q14289);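 note: potency of inhibitors of PYK2 kinase phosphorylation of poly-GT substrate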
Insulin-degrading enzyme = target: T2, Insulin-degrading enzyme (Homo sapiens, UniProt P14735); assay: Dose Response: Fluorescence polarization-based cell-based high throughput dose response assay for inhibitors of insulin-degrading enzyme (IDE). [Related pubchem assays: 434962 (Primary screen (IDE inhibitors in singlicate)), 449730 (Counterscreen (Cytotoxicity in triplicate)), 435028 (Confirmation (IDE inhibitors in triplicate)), 434984 (Summary …; assay type: functional
T2 sequence (P14735 whole entry): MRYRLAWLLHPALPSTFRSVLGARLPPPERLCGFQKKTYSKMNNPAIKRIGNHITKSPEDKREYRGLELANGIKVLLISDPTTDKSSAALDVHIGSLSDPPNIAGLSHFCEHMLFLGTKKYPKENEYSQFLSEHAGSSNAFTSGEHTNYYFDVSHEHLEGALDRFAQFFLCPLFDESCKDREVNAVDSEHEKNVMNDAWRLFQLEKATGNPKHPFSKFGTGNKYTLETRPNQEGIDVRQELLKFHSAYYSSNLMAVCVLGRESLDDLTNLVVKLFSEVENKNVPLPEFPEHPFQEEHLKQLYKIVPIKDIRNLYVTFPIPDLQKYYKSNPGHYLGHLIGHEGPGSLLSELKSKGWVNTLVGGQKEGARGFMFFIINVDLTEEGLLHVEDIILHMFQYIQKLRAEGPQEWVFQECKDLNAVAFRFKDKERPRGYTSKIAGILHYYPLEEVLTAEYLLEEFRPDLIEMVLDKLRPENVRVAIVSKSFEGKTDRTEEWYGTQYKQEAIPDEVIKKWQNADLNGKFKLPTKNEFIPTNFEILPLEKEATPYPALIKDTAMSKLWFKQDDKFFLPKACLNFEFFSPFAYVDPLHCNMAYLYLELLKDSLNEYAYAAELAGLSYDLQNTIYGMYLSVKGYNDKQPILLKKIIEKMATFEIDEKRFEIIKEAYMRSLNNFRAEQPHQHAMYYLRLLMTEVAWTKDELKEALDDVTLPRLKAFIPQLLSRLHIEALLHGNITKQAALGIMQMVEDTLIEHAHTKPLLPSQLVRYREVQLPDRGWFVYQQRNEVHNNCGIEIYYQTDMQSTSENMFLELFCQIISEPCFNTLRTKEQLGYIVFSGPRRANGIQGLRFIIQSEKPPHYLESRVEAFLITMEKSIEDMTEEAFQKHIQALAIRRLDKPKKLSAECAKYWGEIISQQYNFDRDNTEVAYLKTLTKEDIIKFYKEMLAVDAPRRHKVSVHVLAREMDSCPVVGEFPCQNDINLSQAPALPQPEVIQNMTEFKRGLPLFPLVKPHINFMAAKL

[5] = Counterscreen for IDE inhibitors: Luminescence-based cell-based high throughput dose response assay to identify compounds that are cytotoxic to HEK cells. [Related pubchem assays: 434962 (Primary screen (IDE inhibitors in singlicate)), 449730 (Counterscreen (Cytotoxicity in triplicate)), 435028 (Confirmation (IDE inhibitors in triplicate)) …; assay type: functional; details: HEK293
[6] = target: Luciferin 4-monooxygenase (Photinus pyralis, UniProt P08659); assay: firefly luciferase enzyme inhibitors, dose response, biochemical, luminescence (AID 1891)
[7] = Luminescence Cell-Based Dose Confirmation HTS to Identify Inhibitors of Platelet Dense Granule Release. [Related pubchem assays: 1663 (Primary HTS), 1678 (Summary of Project)]; assay type: functional
[8] = target: Neuropeptide Y receptor type 1 (Homo sapiens, UniProt P25929); assay type: functional;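 note: HEK293 cells with a CNG channel challenged with NPY then isoproterenol; potency as antagonist that reverses NPY suppression of cAMP signal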
[9] = target: Neuropeptide Y receptor type 2 (Homo sapiens, UniProt P49146); assay type: functional, cell-based;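 note: HEK293 cells expressing the receptor and a CNG channel; stimulus was NPY near EC95 followed by isoproterenol to raise cAMP; antagonist potency measured as restoring cAMP signal that NPY suppresses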
Aspartyl aminopeptidase = Aspartyl aminopeptidase (Plasmodium falciparum 3D7, UniProt Q8I2J3)
Procathepsin L = Procathepsin L (Homo sapiens, UniProt P07711)
Leucine aminopeptidase = target: T3, Leucine aminopeptidase (Plasmodium falciparum 3D7, UniProt Q8IL11); assay: P. falciparum M17LAP inhibitors, primary screen, biochemical, fluorogenic H-Leu-NHMec substrate, 1536-well (AID 1619); assay type: functional
T3 sequence (Q8IL11 whole entry): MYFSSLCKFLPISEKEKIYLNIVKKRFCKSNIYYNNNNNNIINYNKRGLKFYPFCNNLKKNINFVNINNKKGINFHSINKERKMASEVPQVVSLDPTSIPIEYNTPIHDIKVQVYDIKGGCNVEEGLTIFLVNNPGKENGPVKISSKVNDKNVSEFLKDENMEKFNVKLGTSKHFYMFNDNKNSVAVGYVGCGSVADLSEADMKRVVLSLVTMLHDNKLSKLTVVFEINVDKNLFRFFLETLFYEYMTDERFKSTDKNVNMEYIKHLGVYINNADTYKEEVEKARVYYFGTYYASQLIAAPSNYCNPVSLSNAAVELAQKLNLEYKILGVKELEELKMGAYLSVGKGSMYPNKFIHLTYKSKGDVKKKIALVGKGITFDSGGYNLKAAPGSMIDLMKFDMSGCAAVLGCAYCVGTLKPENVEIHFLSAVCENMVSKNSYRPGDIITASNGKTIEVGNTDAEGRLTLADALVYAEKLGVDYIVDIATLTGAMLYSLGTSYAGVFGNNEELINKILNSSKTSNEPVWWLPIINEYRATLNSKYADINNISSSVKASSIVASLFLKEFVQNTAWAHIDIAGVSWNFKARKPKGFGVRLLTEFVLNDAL

[10] = target: Sphingosine 1-phosphate receptor 4 (Homo sapiens, UniProt O95977); assay: Fluorescence dose response cell-based high throughput screening assay for antagonists of the Sphingosine 1-Phosphate Receptor 4 (S1P4). [Related pubchem assays: 1524 (Confirmation in triplicates.), 1510 (Primary screen.)]; assay type: functional
[11] = cytotoxicity toward NIH3T3 fibroblasts, dose response, counter-screen, cell-based, ATP luminescence, mouse fibroblasts (AID 2010); assay type: functional;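 note: cells exposed to compound for about 90 hours before reading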
[12] = target: T4, Polyadenylate-binding protein 1 (Homo sapiens, UniProt P11940); assay: PABP1 MLLE–PAM2 interaction inhibitors, dose response, miRNA deadenylation inhibitor project, biochemical, fluorescence polarization, Cy5-PAM2 peptide, secondary (AID 602260); assay type: functional; details: read-out: IC50_Mean
[13] = target: Sphingosine 1-phosphate receptor 1 (Homo sapiens, UniProt P21453); assay type: functional;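 note: Tango beta-arrestin reporter U2OS cells stimulated with S1P near its EC80; inhibitor potency meaning antagonism of receptor activation by the natural agonist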
[14] = inhibitors of intracellular T. cruzi replication, confirmation, NIH3T3 host cells, beta-gal luminescence (AID 2044); assay type: functional, cell-based;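 note: intracellular parasites grown in NIH/3T3 mouse fibroblasts as host cells; luminescent beta-galactosidase reporter signal from transgenic T. cruzi replicating inside host cells; inhibitors lower the luminescence signal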
[15] = target: T4, Polyadenylate-binding protein 1; assay: PABP1 MLLE–PAM2 binding inhibitor potency, dose response, biochemical, fluorescence polarization, FITC-PAM2 peptide (AID 602259); assay type: functional; details: read-out: IC50_Mean
[16] = cytotoxicity in KRAS-transformed pancreatic duct cells, primary screen, cell-based, fluorescence, HTS (AID 431); assay type: functional; details: Homo sapiens;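 note: cell line used: HPDE-C7K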
[17] = cytotoxicity in HPDE-C7 cells, cell-based, fluorescence, HTS (AID 430); assay type: functional; details: Homo sapiens

T4 sequence (P11940 whole entry): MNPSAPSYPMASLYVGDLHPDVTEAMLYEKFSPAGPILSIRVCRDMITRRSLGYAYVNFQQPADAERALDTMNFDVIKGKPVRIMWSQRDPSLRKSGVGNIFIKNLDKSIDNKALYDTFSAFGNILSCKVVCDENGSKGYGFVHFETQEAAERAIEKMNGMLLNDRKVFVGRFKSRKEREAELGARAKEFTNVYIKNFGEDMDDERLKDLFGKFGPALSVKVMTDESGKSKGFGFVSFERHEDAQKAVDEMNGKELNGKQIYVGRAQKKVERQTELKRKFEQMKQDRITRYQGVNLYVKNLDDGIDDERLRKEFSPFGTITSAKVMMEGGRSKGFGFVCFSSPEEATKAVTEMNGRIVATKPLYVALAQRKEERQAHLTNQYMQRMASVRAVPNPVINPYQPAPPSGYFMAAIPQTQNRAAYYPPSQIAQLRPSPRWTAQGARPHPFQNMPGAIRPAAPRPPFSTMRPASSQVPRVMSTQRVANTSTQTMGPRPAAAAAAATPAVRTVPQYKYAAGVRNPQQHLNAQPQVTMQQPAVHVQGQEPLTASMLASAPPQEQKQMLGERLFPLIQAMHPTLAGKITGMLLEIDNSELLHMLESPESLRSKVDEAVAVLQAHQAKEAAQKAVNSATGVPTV
Large T antigen, sequence (P03070 whole entry, the tested form may be a part): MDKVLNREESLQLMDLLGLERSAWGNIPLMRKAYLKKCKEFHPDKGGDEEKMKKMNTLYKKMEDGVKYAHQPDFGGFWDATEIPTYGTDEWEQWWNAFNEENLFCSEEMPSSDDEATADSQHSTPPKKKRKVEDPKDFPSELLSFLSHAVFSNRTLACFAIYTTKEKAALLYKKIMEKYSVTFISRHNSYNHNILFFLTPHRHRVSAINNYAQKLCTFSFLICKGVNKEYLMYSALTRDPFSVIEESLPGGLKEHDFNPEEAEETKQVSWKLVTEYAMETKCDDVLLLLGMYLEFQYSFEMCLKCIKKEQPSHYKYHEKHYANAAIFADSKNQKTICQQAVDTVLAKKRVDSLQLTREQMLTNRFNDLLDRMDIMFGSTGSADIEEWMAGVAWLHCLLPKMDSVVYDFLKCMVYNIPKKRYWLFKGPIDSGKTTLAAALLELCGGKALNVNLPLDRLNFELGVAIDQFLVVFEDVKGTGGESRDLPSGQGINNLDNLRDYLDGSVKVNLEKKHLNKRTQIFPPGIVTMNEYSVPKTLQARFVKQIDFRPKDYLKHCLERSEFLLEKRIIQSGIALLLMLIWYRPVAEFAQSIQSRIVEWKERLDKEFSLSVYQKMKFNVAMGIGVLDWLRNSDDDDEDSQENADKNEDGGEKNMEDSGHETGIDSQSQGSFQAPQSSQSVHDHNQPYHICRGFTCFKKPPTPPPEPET
Mothers against decapentaplegic homolog 3, sequence (P84022 whole entry): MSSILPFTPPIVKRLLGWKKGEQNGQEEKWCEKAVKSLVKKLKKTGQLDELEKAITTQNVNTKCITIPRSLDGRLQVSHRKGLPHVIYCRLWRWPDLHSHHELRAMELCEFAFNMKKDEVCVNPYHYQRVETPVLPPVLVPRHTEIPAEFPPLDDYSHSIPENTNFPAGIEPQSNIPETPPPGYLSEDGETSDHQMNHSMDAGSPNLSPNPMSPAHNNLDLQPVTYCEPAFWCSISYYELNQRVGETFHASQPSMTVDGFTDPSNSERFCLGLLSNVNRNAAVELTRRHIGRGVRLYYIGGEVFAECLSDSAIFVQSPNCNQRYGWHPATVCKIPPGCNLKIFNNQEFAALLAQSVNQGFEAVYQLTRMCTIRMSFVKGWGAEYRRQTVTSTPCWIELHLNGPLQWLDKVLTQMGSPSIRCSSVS
Protein-tyrosine kinase 2-beta, sequence (Q14289 whole entry): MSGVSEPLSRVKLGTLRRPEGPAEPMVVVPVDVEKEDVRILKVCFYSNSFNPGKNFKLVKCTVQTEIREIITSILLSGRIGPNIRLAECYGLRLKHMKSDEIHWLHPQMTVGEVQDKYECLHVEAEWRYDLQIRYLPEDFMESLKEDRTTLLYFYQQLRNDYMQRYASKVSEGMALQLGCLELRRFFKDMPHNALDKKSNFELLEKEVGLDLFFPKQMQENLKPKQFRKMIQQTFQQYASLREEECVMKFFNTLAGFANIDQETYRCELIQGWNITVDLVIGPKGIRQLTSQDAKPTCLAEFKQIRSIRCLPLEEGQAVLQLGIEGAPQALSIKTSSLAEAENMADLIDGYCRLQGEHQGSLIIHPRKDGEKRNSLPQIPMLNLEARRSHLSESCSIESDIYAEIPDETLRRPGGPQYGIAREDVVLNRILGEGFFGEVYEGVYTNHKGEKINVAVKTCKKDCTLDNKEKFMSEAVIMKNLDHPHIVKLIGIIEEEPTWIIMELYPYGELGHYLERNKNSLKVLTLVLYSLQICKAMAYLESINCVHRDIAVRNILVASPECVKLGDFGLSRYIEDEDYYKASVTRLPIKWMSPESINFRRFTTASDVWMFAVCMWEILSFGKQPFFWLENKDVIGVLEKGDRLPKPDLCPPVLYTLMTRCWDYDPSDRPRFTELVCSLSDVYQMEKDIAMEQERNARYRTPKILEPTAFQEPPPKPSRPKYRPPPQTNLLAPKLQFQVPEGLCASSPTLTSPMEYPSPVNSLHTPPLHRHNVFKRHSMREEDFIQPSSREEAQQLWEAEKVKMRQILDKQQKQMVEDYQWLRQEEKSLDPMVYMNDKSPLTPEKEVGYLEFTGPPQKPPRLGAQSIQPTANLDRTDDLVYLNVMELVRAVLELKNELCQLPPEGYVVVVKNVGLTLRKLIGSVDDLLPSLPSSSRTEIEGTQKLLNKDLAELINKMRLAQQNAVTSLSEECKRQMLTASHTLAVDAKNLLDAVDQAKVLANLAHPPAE
Luciferin 4-monooxygenase, sequence (P08659 whole entry): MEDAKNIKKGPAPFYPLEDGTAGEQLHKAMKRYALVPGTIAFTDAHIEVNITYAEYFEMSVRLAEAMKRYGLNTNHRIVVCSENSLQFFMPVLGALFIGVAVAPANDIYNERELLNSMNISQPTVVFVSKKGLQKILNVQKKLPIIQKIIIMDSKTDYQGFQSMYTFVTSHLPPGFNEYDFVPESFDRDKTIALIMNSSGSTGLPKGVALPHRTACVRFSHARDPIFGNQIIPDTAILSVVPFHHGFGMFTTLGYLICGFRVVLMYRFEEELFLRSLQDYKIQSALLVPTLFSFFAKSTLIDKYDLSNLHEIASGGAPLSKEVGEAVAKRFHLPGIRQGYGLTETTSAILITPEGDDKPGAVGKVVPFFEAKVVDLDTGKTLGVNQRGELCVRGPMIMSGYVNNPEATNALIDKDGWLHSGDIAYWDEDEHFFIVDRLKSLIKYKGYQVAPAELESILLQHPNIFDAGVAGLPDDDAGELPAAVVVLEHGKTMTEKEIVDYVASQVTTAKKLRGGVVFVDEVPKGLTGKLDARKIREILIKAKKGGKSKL
Sphingosine 1-phosphate receptor 1, sequence (P21453 whole entry): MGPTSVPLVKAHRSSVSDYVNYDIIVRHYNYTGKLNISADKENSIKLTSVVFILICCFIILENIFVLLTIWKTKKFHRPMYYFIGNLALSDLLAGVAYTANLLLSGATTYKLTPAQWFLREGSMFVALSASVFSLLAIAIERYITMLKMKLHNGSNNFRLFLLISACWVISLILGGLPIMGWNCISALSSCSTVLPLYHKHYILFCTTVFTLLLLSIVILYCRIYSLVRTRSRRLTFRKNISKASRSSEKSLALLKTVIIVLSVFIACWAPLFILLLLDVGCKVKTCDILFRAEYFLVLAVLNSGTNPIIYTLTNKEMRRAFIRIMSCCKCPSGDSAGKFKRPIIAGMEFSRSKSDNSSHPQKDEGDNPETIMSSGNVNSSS
Procathepsin L, sequence (P07711 whole entry): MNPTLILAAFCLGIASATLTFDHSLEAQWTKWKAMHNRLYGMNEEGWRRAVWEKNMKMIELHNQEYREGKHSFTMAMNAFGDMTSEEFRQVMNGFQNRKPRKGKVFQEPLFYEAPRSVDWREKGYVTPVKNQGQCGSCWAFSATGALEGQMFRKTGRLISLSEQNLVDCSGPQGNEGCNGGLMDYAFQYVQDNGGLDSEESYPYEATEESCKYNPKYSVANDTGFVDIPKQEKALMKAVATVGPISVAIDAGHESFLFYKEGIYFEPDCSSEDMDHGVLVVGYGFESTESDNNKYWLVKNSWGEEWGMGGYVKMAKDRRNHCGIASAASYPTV
Sphingosine 1-phosphate receptor 4, sequence (O95977 whole entry): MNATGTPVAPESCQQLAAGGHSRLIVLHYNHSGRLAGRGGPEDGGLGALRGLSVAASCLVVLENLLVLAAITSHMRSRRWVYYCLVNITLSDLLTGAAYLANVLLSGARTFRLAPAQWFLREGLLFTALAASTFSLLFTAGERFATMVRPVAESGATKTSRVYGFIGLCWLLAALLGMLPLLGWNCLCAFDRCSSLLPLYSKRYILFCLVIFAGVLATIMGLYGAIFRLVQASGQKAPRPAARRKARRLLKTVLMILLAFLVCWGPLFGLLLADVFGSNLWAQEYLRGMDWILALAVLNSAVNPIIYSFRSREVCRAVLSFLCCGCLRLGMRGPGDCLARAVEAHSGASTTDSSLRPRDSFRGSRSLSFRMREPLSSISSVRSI
Neuropeptide Y receptor type 1, sequence (P25929 whole entry): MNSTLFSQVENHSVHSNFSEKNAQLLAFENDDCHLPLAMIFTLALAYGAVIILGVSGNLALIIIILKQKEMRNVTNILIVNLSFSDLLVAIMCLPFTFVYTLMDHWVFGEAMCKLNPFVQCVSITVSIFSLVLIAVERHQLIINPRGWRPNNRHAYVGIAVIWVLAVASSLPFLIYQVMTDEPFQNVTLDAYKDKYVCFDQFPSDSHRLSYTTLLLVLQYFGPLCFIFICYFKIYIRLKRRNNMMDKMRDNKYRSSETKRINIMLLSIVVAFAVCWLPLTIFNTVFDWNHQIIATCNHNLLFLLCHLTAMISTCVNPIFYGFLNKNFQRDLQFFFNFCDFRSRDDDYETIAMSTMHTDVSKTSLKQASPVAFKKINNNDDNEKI

CCOc1ccccc1N1CSC2=C(C#N)C(c3c(OC)ccc4ccccc34)CC(=O)N2C1 (configuration not stated)
IC50 (Large T antigen): 78.8 µM (active) | EC50 (Estrogen receptor [1]): 16.1 µM (active)

Oc1ccccc1-c1nc(N2CCCC2)c2ccccc2n1
IC50 [2]: 14.6 µM (active)

O=c1oc2ccccc2n1CCn1c2ccccc2c2nc3ccccc3nc21
IC50 (Estrogen receptor [3]): 17.9 µM (active) | IC50 [4]: 2.08 µM (active)

COc1cccc(NC(=O)COC(=O)/C=C/c2c(C)nn(-c3ccccc3)c2C)c1
IC50 (Insulin-degrading enzyme): 8.29 µM (active) | IC50 [5]: > 55.7 µM (not active)

O=C(Nc1ccccc1)OCc1cc(-c2ccccc2Cl)on1
EC50 [6]: > 112 µM (not active) | EC50 [7]: > 112 µM (not active) | IC50 [8]: 9 µM (active) | IC50 [9]: 14.7 µM (not active)

O=C(CSc1nc[nH]n1)Nc1ccc([N+](=O)[O-])cc1Br
IC50 (Aspartyl aminopeptidase): 0.975 µM (active) | IC50 (Procathepsin L): > 59.6 µM (not active) | IC50 (Leucine aminopeptidase): 19.9 µM (active)

Cc1ccnc(N2C(=O)c3cccc4c([N+](=O)[O-])ccc(c34)C2=O)c1
IC50 [10]: 1.62 µM (active) | EC50 [11]: > 30 µM (not active) | IC50 [12]: > 66 µM (inactive) | IC50 [13]: 3.43 µM (active) | EC50 [14]: 4.58 µM (active) | IC50 [15]: 23.4 µM (inactive)

CCOP(=O)(c1ccccc1)c1nc(-c2ccccc2C)oc1N1CCCCC1 (configuration not stated)
EC50 [16]: > 20 µM (not active) | EC50 [17]: > 20 µM (not active)
